# Legend:
# nTregs = assay: Proliferation (VCT, flow cytometry) of activated nTregs; type: cell-based, mouse; conditions: 72 hrs, anti-CD3, IL2 and anti-CD28
# Method: (§1) FACS-sorted nTregs, CD4+ and CD8+ T cells from C57BL/6J(foxp3-GFP) were plated on anti-CD3-coated plates and cultured in activation media (IL2 and anti-CD28) without inhibitors (Stimulated) and with inhibitors (JJ64-E) for 72 hrs. For negative control (Non-stimulated-NS) cells were left in media containing IL-2 for 72 hrs. After 72 hrs Proliferation (level of VCT) in live gated cells was measured by flow cytometry.
# CD4+ and CD8+ T cells = assay: Proliferation (VCT, flow cytometry) of activated CD4+ and CD8+ T cells; type: cell-based, mouse; conditions: 72 hrs, anti-CD3, IL2 and anti-CD28
# Method: as §1
# Tregs (CD4+Foxp3+) = assay: TC-1 tumor model: percentage of Tregs by flow cytometry; type: in vivo, mouse; conditions: 5 mg/kg or 10 mg/kg i.p. every day from day 10, analysed day 15
# Method: (§2) WT C57BL/6J mice (n=3/group) were injected s.c. in the right flank with 7×10^4 TC-1 cells. Mice from appropriate groups were treated with either 5 mg/kg or 10 mg/kg of JJ64-E injected (i.p.) every day starting on day 10 after tumor implantation throughout the experiment. All groups were euthanized on day 15 of TC-1 implantation. The percentage of Tregs (CD4+Foxp3+) was analyzed by flow cytometry.
# (§3) Statistical significance was determined by one-way ANOVA with Tukey's multiple comparison test (*, p<0.05; **, p<0.01; ***, p<0.001).
# TC-1 tumor = TC-1 tumor growth and survival, alone or with vaccine; type: in vivo, mouse; conditions: high dose as monotherapy, lower dose combined with vaccine
# Method: (§4) C57BL/6 mice (n=5/group) were injected s.c. in the right flank with 7×10^4 TC-1 cells. Mice from appropriate groups were injected weekly with vaccine (s.c.) or DMSO 5% as a control. Mice were also treated with vaccine (weekly) along with either 10 mg/kg or 20 mg/kg of JJ64-E injected (i.p.) every day starting on day 6 after tumor implantation throughout the experiment.
# FIGS. 5B and 5C are bar diagrams showing average tumor volumes of mice for each group. FIG. 5D is a Kaplan-Meier plot of the overall survival. Statistical significance was determined by Log-rank (Mantel-Cox) test.
# as §3
# as §4, with “JJ64-C(or FIG. 7A or Formula 18)” for “JJ64-E”, “every other” for “every”
# FIGS. 7C and 7D are bar diagrams representing average tumor volumes of mice for each group. FIG. 7E is a Kaplan-Meier plot of the overall survival. Statistical significance was determined by Log-rank (Mantel-Cox) test.
# Akt3 = target: T1, Akt3 (Mus musculus, UniProt Q9WUA6); assay: Immunoblot of pAkt3 in activated nTregs; type: cell-based; conditions: 72 hrs
# T1 construct: nTreg cell lysates prepared on day 3 (72 hrs) of treatment were separated by SDS-PAGE and immunoblotted; endogenous in cells; host or cells: primary mouse nTregs (C57BL/6J foxp3-GFP)
# T1 sequence (Q9WUA6 whole entry): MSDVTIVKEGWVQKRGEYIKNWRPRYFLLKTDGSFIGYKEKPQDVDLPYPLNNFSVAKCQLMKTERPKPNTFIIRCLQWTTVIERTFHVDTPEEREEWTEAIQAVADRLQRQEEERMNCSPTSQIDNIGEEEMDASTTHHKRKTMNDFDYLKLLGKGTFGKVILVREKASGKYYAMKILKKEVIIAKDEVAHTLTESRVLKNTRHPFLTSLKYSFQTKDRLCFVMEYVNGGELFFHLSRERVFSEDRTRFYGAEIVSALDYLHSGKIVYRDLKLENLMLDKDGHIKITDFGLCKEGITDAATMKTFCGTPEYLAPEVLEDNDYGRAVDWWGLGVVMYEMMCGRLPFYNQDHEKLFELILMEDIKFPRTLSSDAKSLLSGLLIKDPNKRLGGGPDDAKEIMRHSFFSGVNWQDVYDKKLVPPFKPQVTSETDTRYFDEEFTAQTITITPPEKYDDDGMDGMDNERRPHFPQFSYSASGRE
# Method: (§5) FACS-sorted natural regulatory T cells (nTregs), from WT C57BL/6J (foxp3-GFP) mice were plated on anti-CD3-coated plates and cultured in activation media (IL2 and anti-CD28) without inhibitors (Stimulated) and with different concentrations of inhibitor 4-[(6-nitroquinolin-4-yl)amino]-N-[4-(pyridin-4-ylamino)phenyl]benzamide (also referred to as JJ64-E) for 72 hrs. For negative control (Non-stimulated-NS) cells were left in media containing IL-2 for 72 hrs. nTreg cell lysates prepared on day 3 (72 hrs) of treatment were separated by SDS-PAGE and immunoblotted with specific antibodies (pAkt1) or pAkt3; actin was used as loading control.
# [1] = test system: CD8 and other (FoxP3neg) CD4 T cells; assay: TC-1 tumor model: percentage of CD4 and CD8 T cells by flow cytometry; type: in vivo, mouse; conditions: 5 mg/kg or 10 mg/kg i.p. every day from day 10, analysed day 15
# Method: as §2, with “C57BL/6 4-6 weeks old female” for “C57BL/6J”, “(n=5/group)” for “(n=3/group)”, “everyday” for “every day”, “CD4 and CD8 were” for “Tregs (CD4+Foxp3+) was”, “analyzed in splenic CD4+ cells” for “analyzed”
# Akt1 = target: T2, Akt1 (Mus musculus, UniProt P31750); assay: Immunoblot of pAkt1 in activated nTregs; type: cell-based; conditions: 72 hrs
# T2 construct: endogenous in cells; host or cells: primary mouse nTregs (C57BL/6J foxp3-GFP)
# T2 sequence (P31750 whole entry): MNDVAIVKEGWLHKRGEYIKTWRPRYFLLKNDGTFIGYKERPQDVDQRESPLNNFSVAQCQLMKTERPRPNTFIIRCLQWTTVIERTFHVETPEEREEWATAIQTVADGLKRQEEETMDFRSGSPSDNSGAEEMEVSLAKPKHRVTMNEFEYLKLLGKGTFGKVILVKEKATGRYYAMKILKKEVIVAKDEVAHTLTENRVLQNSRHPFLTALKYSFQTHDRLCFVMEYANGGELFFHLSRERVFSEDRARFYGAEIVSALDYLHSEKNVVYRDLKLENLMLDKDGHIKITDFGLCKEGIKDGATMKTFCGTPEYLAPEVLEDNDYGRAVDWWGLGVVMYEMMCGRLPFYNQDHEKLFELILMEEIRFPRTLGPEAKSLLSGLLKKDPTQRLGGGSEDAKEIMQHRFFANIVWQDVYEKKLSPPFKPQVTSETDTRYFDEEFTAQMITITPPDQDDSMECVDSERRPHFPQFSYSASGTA
# Method: as §5
# [2] = test system: iTreg induction (CD4+FoxP3+ cells); assay: iTreg induction from CD4+FoxP3- cells with TGF-β (flow cytometry); type: cell-based; conditions: 72 hrs, frequency of CD4+FoxP3+ cells
# Method: (§6) FACS-sorted CD4+FoxP3− cells were plated on anti-CD3-coated plates with soluble IL2 and ant-CD28 with TGF-β (induction) Cell were induced for iTregs with JJ64-B (FIG. 6A) without inhibitor (Induction-IND)) or for 72 hrs. Cells were harvested and the frequency of CD4+FoxP3+ cells was measured by flow cytometry.
# as §6, with “JJ64-C (JJ64 modified drug C or Formula 18) or” for “JJ64-B (FIG. 6A)”
# as §6, with “JJ64-D (JJ64 modified drug D or FIG. 9A) or” for “JJ64-B (FIG. 6A)”
# [3] = JJ64-E i.p. every day from day 6
# [4] = JJ64-C i.p. every other day from day 6
SMILES,Treg proliferation (nTregs),proliferation of CD8 and other CD4 T cells (CD4+ and CD8+ T cells),Tregs in vivo in TC-1 tumor model (Tregs (CD4+Foxp3+)),TC-1 tumor growth (TC-1 tumor; [3]),survival of TC-1 tumor mice (TC-1 tumor; [3]),Akt3 phosphorylation in Tregs (Akt3),CD8 and other (FoxP3neg) CD4 T cells in TC-1 tumor model [1],Akt1 phosphorylation in Tregs (Akt1),TC-1 tumor growth (TC-1 tumor; [4]),survival of TC-1 tumor mice (TC-1 tumor; [4]),iTreg induction [2]
"O=C(Nc1ccc(Nc2ccncc2)cc1)c1ccc(Nc2ccnc3ccc([N+](=O)[O-])cc23)cc1 [Compound 1, 4-[(6-nitroquinolin-4-yl)amino]-N-[4-(pyridin-4-ylamino)phenyl]benzamide]",selectively inhibits,sparing,decreases,inhibits,prolongs,inhibits,does not affect,not,–,–,–
O=C(Nc1cccc(Nc2ccncc2)c1)c1cccc(Nc2ccnc3ccc(F)cc23)c1 [Compound 18],–,–,–,–,–,–,–,–,inhibits,prolongs,inhibits

# From patent publication US11291719B2, “Methods and compositions for modulating Akt3” (Augusta University Research Institute, Inc., priority 2016, dated 2022)
